Read-outs that look alike come from different tables or passages of the source.
Target: T1, phospho p-38 alpha kinase (Homo sapiens, UniProt Q16539)
T1 construct: purchased Panvera
Test: P-38 alpha kinase assay (spectrophotometric, pyruvate kinase/lactate dehydrogenase coupled)
Format: biochemical
Details: for IC50: Table 3, rates from […] to 2 h time frame
Method: In this assay, the oxidation of NADH was continuously measured spectrophometrically. […] The reaction was initiated by adding ATP. The absorption at 340 nm was monitored continuously for up to 4 hours at 30° C. on Polarstar Optima plate reader (BMG). The kinase activity (reaction rate) was calculated from the slope at the time frame from 1.5 h to 2 h.
For inhibition determinations, test compounds were incubated with the reaction mixture for ˜5 min before adding ATP to start the reaction. […] IC50 values were calculated from a series of % inhibition values determined at a range of concentrations of each inhibitor using Prism to process the data and fit inhibition curves. Generally, the rates obtained at the time frame of 1.5 h to 2 h were used for these calculations.

[1] = read-out: % Inhibition @ concentration, Table 3
[2] = read-out: % inhibition @ concentration, Table 2

T1 sequence (Q16539 whole entry): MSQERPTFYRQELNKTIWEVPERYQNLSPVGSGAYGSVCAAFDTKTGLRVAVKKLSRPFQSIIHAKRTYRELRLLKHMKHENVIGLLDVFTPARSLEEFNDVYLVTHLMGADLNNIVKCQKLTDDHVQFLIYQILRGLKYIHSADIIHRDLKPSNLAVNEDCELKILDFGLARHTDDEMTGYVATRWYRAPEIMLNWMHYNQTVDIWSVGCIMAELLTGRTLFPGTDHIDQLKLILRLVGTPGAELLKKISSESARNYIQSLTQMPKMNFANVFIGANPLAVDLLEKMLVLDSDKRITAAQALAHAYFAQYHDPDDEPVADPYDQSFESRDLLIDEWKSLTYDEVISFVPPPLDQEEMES

| IC50 [nM] | SMILES | inhibition at 10 µM [1] [%] | further results |
| --- | --- | --- | --- |
|  | CCOC(=O)C(C)Cc1cccc(-n2nc(C(C)(C)C)cc2NC(=O)Nc2cccc3ccccc23)c1 (racemic) [Example 200] |  | inhibition at 1 µM [1]: 73% |
|  | CC1(C(=O)NCc2cccc(-n3nc(C(C)(C)C)cc3NC(=O)Nc3ccc(Cl)cc3)c2)CC2(C)CC(C)(C1)C(=O)NC2=O (centres unmarked) [Example 10, 1,5,7-trimethyl-2,4-dioxo-3-aza-bicyclo[3.3.1]nonane-7-carboxylic acid 3-{3-t-butyl-5-[3-(4-chloro-phenyl)-ureido]-pyrazol-1-yl}benzylamide] |  | inhibition at 10 µM [2]: 83% |
|  | CC(C)(C)c1cc(NC(=O)Nc2cccc3ccccc23)n(-c2cccc(C(=O)N3C(=O)OC[C@H]3c3ccccc3)c2)n1 [Example 17, D-1-{5-tert-butyl-2-[3-(2-oxo-4-phenyl-oxazolidinyl-3-carbonyl)phenyl]-2H-pyrazol-3-yl}-3-(naphthalen-1-yl)urea] |  | inhibition at 10 µM [2]: 40% |
|  | CC(C)(C)c1cc(NC(=O)Nc2cccc3ccccc23)n(-c2cccc(C(=O)N3C(=O)OC[C@@H]3c3ccccc3)c2)n1 [Example 18, L-1-{5-tert-butyl-2-[3-(2-oxo-4-phenyl-oxazolidinyl-3-carbonyl)phenyl]-2H-pyrazol-3-yl}-3-(naphthalen-1-yl)urea] |  | inhibition at 10 µM [2]: 60% |
|  | CC(C)(C)c1cc(NC(=O)Nc2ccc(F)cc2)n(-c2cccc(CCC(=O)O)c2)n1 [Example 146, 3-(3-{3-t-butyl-5-[3-(4-fluoro-phenyl)-ureido]-pyrazol-1-yl}-phenyl)-propionic acid] | 9 |  |
|  | CCOC(=O)CCc1cccc(-n2nc(C(C)(C)C)cc2NC(=O)Nc2ccc(OC)cc2)c1 [Example 147, 3-(3-{3-t-butyl-5-[3-(4-methoxy-phenyl)-ureido]-pyrazol-1-yl}-phenyl)-propionic acid ethyl ester] | 27 |  |
|  | CC(C)(C)c1cc(NC(=O)c2nccc3ccccc23)n(-c2cccc(CCC(=O)O)c2)n1 [Example 150, 3-(3-{3-t-butyl-5-[(isoquinoline-1-carbonyl)-amino]-pyrazol-1-yl}-phenyl)-propionic acid] | 53 |  |
|  | CCOC(=O)CCc1cccc(-n2nc(C(C)(C)C)cc2NC(=O)c2ccc3ccccc3c2)c1 [Example 154, 3-(3-{3-t-butyl-5-[(naphthalene-2-carbonyl)-amino]-pyrazol-1-yl}-phenyl)-propionic acid ethyl ester] | 21 |  |
|  | CC(C)(C)c1cc(NC(=O)c2ccc3ccccc3c2)n(-c2cccc(CCC(=O)O)c2)n1 [Example 155] | 58 |  |
| 89 | CC(C)(C)c1cc(NC(=O)Nc2ccccc2F)n(-c2cccc(CO)c2)n1 [Example 303, 1-{3-t-butyl-1-[3-(hydroxymethyl)phenyl]-1H-pyrazol-5-yl}-3-(2-fluorophenyl)urea] |  |  |
| 58 | CC(C)(C)c1cc(NC(=O)Nc2ccccc2F)n(-c2ccc(CC(=O)O)cc2)n1 [Example 306, 2-(4-(3-t-butyl-5-(3-(2-fluorophenyl)ureido)-1H-pyrazol-1-yl)phenyl)acetic acid] |  |  |
| 120 | CC(C)(C)c1cc(NC(=O)Nc2cccc3ccccc23)n(-c2cccc(CN3C(=O)CCC3=O)c2)n1 [Example 308, 1-(3-t-butyl-1-{3-[(2,5-dioxopyrrolidin-1-yl)methyl]phenyl}-1H-pyrazol-5-yl)-3-(naphthalen-1-yl)urea] |  |  |
| 130 | COc1cccc(-n2nc(C(C)(C)C)cc2NC(=O)Nc2cccc(F)c2)c1 [Example 310, 1-(3-t-butyl-1-(3-methoxyphenyl)-1H-pyrazol-5-yl)-3-(3-fluorophenyl)urea] |  |  |
| 182 | COc1cccc(-n2nc(C(C)(C)C)cc2NC(=O)Nc2cccc(Cl)c2)c1 [Example 311, 1-(3-t-butyl-1-(3-methoxyphenyl)-1H-pyrazol-5-yl)-3-(3-chlorophenyl)urea] |  |  |
| 250 | COc1cccc(-n2nc(C(C)(C)C)cc2NC(=O)Nc2cccc(C)c2)c1 [Example 313, 1-(3-t-butyl-1-(3-methoxyphenyl)-1H-pyrazol-5-yl)-3-m-tolylurea] |  |  |
| 250 | COc1cccc(-n2nc(C(C)(C)C)cc2NC(=O)Nc2ccc(C(F)(F)F)cc2)c1 [Example 314, 1-(3-t-butyl-1-(3-methoxyphenyl)-1H-pyrazol-5-yl)-3-(4-(trifluoromethyl)phenyl)urea] |  |  |
|  | COc1cccc(-n2nc(C(C)(C)C)cc2NC(=O)Nc2cccc(C(F)(F)F)c2)c1 [Example 315, 1-(3-t-butyl-1-(3-methoxyphenyl)-1H-pyrazol-5-yl)-3-(3-(trifluoromethyl)phenyl)urea] | 54 |  |
| 420 | COc1cccc(-n2nc(C(C)(C)C)cc2NC(=O)Nc2ccc(Cl)c(C(F)(F)F)c2)c1 [Example 316, 1-(3-t-butyl-1-(3-methoxyphenyl)-1H-pyrazol-5-yl)-3-(4-chloro-3-(trifluoromethyl)phenyl)urea] |  |  |

| IC50 [nM] | SMILES | inhibition at 10 µM [1] [%] | further results |
| --- | --- | --- | --- |
| 670 | COc1cccc(-n2nc(C(C)(C)C)cc2NC(=O)Nc2ccc(Cl)cc2Cl)c1 [Example 318, 1-(3-t-butyl-1-(3-methoxyphenyl)-1H-pyrazol-5-yl)-3-(2,4-dichlorophenyl)urea] |  |  |
| 320 | COc1cccc(-n2nc(C(C)(C)C)cc2NC(=O)Nc2cc(Cl)cc(Cl)c2)c1 [Example 319, 1-(3-t-butyl-1-(3-methoxyphenyl)-1H-pyrazol-5-yl)-3-(3,5-dichlorophenyl)urea] |  |  |
| 790 | CC(C)(C)c1cc(NC(=O)Nc2ccc(Cl)cc2)n(-c2cccc(CN3C(=O)CCC3=O)c2)n1 [Example 320, 1-(3-t-butyl-1-{3-[(2,5-dioxopyrrolidin-1-yl)methyl]phenyl}-1H-pyrazol-5-yl)-3-(4-chlorophenyl)urea] |  |  |
| 2020 | COc1cccc(-n2nc(C(C)(C)C)cc2NC(=O)Nc2ccc(C#N)cc2)c1 [Example 322, 1-(3-t-butyl-1-(3-methoxyphenyl)-1H-pyrazol-5-yl)-3-(4-cyanophenyl)urea] |  |  |
|  | COc1cccc(-n2nc(C(C)(C)C)cc2NC(=O)Nc2ccc(N(C)C)cc2)c1 [Example 323, 1-(3-t-butyl-1-(3-methoxyphenyl)-1H-pyrazol-5-yl)-3-(4-(dimethylamino)phenyl)urea] | 51 | inhibition at 1 µM [1]: 9% |
|  | COc1cccc(-n2nc(C(C)(C)C)cc2NC(=O)Nc2cccc(N(C)C)c2)c1 [Example 324, 1-(3-t-butyl-1-(3-methoxyphenyl)-1H-pyrazol-5-yl)-3-(3-(dimethylamino)phenyl)urea] | 40 |  |
|  | COc1cccc(-n2nc(C(C)(C)C)cc2NC(=O)Nc2cccc(C#N)c2)c1 [Example 325, 1-(3-t-butyl-1-(3-methoxyphenyl)-1H-pyrazol-5-yl)-3-(3-cyanophenyl)urea] | 54 |  |
|  | COc1cccc(NC(=O)Nc2cc(C(C)(C)C)nn2-c2cccc(OC)c2)c1 [Example 326, 1-(3-t-butyl-1-(3-methoxyphenyl)-1H-pyrazol-5-yl)-3-(3-methoxyphenyl)urea] | 41 |  |
| 810 | COc1cccc(-n2nc(C(C)(C)C)cc2NC(=O)Nc2ccsc2)c1 [Example 327, 1-(3-t-butyl-1-(3-methoxyphenyl)-1H-pyrazol-5-yl)-3-(thiophen-3-yl)urea] |  |  |
|  | COc1cccc(-n2nc(C(C)(C)C)cc2NC(=O)Nc2cccnc2)c1 [Example 328, 1-(3-t-butyl-1-(3-methoxyphenyl)-1H-pyrazol-5-yl)-3-(pyridin-3-yl)urea] | 68 |  |
| 250 | COc1cccc(-n2nc(C(C)(C)C)cc2NC(=O)Nc2ccc3c(c2)OCO3)c1 [Example 329, 1-(benzo[d][1,3]dioxo-5-yl)-3-(3-t-butyl-1-(3-methoxyphenyl)-1H-pyrazol-5-yl)urea] |  |  |
|  | COc1cccc(-n2nc(-c3ccccc3)cc2NC(=O)Nc2cccc(Cl)c2)c1 [Example 331] | 71 |  |
| 50 | COc1cccc(-n2nc(-c3ccccc3)cc2NC(=O)Nc2cccc(Br)c2)c1 [Example 332] |  |  |
| 2440 | COc1cccc(-n2nc(-c3ccccc3)cc2NC(=O)Nc2cccc(C(F)(F)F)c2)c1 [Example 333] |  |  |
| 2200 | COc1cccc(NC(=O)Nc2cc(-c3ccccc3)nn2-c2cccc(OC)c2)c1 [Example 334, 1-(3-methoxyphenyl)-3-(1-(3-methoxyphenyl)-3-phenyl-1H-pyrazol-5-yl)urea] |  |  |
| 14 | COc1cccc(-n2nc(-c3ccccc3)cc2NC(=O)Nc2cccc(Cl)c2Cl)c1 [Example 335] |  |  |
|  | COc1cccc(-n2nc(C)cc2NC(=O)Nc2cccc(Cl)c2)c1 [Example 336, 1-(3-chlorophenyl)-3-(1-(3-methoxyphenyl)-3-methyl-1H-pyrazol-5-yl)urea] | 27 |  |

| SMILES | IC50 [nM] | inhibition at 10 µM [1] [%] | further results |
| --- | --- | --- | --- |
| CC(C)(C)c1cc(NC(=O)Nc2cccc(F)c2F)n(-c2ccc(CC(=O)O)cc2)n1 [Example 307, 2-(4-(3-t-butyl-5-(3-(2,3-difluorophenyl)ureido)-1H-pyrazol-1-yl)-phenyl)acetic acid] | 49 |  |  |
| COc1cccc(-n2nc(C(C)(C)C)cc2NC(=O)Nc2ccc(F)cc2)c1 [Example 309, 1-(3-t-butyl-1-(3-methoxyphenyl)-1H-pyrazol-5-yl)-3-(4-fluorophenyl)urea] | 300 |  |  |
| COc1cccc(-n2nc(C(C)(C)C)cc2NC(=O)Nc2cccc(Br)c2)c1 [Example 312, 1-(3-t-butyl-1-(3-methoxyphenyl)-1H-pyrazol-5-yl)-3-(3-bromophenyl)urea] | 349 |  |  |
| COc1cccc(-n2nc(C(C)(C)C)cc2NC(=O)Nc2ccc(Cl)c(Cl)c2)c1 [Example 317, 1-(3-t-butyl-1-(3-methoxyphenyl)-1H-pyrazol-5-yl)-3-(3,4-dichlorophenyl)urea] | 68 |  |  |
| COc1cccc(-n2nc(C(C)(C)C)cc2NC(=O)Nc2ccc([N+](=O)[O-])cc2)c1 [Example 321, 1-(3-t-butyl-1-(3-methoxyphenyl)-1H-pyrazol-5-yl)-3-(4-nitrophenyl)urea] | 520 |  |  |
